Reference: patent US4477659A, “Cephalosporin compound” (Asahi Kasei Kogyo Kabushiki Kaisha, priority 1981, dated 1984)
In brackets after ≈: the same amount, converted by molar mass.

Tests used:
[1] = Blood concentration, oral, rats, suspended in CMC aqueous solution (Example 17); assay type: in vivo, Male Wistar rats; conditions: 50 mg/kg oral, rat; for concentration at 0.5 h / concentration at 1 h / concentration at 4 h: blood, read-out: Blood Concentration of the Compound
Experimental: (§1) Male Wistar rats weighing 180-250 g were fed with only water overnight. The next day the rats were orally administered with 50 mg/kg of a test compound which was dissolved in a buffer solution having pH of 7. The concentration of the compound in blood of the tested animals (one group consisting of 6 animals) was measured 0.5, 1, 2 and 4 hours after the administration by Bioassay method by using Bacillus subtilis ATCC 6633 strain as an indicator bacteria. In the measurement, an ordinary culture medium was employed, and the preparation of the standard solution and other method were carried out in according to Japanese Antibiotical Pharmaceutical Standards. Further, the concentration of the compound in blood was also measured by high performance liquid chromatography. The blood concentration shown below was an average value of each animal group.
The blood concentration of the compounds as obtained in Examples 12-15 and the compounds as obtained in the same manner as in Examples 3 and 12, respectively, was measured. The measurement was carried out in the same manner as Example 16 except that the test compound was suspended in a CMC aqueous solution instead of being dissolved in a buffer solution having pH of 7.

[2] = system: E. Coli W3630; assay: MIC (Table 4); assay type: cell-based; conditions: 10^8 cells/ml; unit assumed
Text: (§2) | MIC Value (10^8 cells/ml)

[3] = system: Staph. aureus ATCC 6538p; assay: MIC (Table 4); assay type: cell-based; conditions: 10^8 cells/ml; unit assumed
Text: as §2

[4] = system: Salm enteritidis Gaertner; assay: MIC (Table 4); assay type: cell-based; conditions: 10^8 cells/ml; unit assumed
Text: as §2

[5] = system: Staph. aureus MS 27; assay: MIC (Table 4); assay type: cell-based; conditions: 10^8 cells/ml; unit assumed
Text: as §2

[6] = system: E. Coli NIHJ-JC2; assay: MIC (Table 4); assay type: cell-based; conditions: 10^8 cells/ml; unit assumed
Text: as §2

[7] = system: Staph. aureus 0003; assay: MIC (Table 4); assay type: cell-based; conditions: 10^8 cells/ml; unit assumed
Text: as §2

[8] = system: E. Coli W3630 ps 3; assay: MIC (Table 4); assay type: cell-based; conditions: 10^8 cells/ml; unit assumed
Text: as §2

[9] = system: Klebs. pneumoniae ATCC 10031; assay: MIC (Table 4); assay type: cell-based; conditions: 10^8 cells/ml; unit assumed
Text: as §2

[10] = Absorption test, oral, rats, solution in buffer pH 7 (Example 16); assay type: in vivo, Male Wistar rats; conditions: blood, 50 mg/kg oral, rat, average of 6, read-out: Blood Concentration of the Compound
Experimental: The absorption test of the compounds as obtained in Examples 1-11 were tested by the following method.
as §1

In the case of “7-β-[4-(2'-amino-2'-carboxy)ethylimidazol-2-yl-thioacetamido]-7α-methoxy-3-[(1-methyl-1H-tetrazol-5-yl) thiomethyl]-3-cephem-4-carboxylic acid ditert-butylcarboxymethyl ester [(19)]”, the “Blood Concentration of the Compound” value ([1]; 0.5 hr.) was 7.2 µg/mL, the “Blood Concentration of the Compound” value ([1]; 1 hr.) was 3.9 µg/mL and the “Blood Concentration of the Compound” value ([1]; 4 hrs.) was 1.6 µg/mL.
In the case of `CC(=O)NC(Cc1c[nH]c(SCC(=O)NC2C(=O)N3C(C(=O)O)=C(CSc4nnc(C)s4)CSC23)n1)C(=O)O` (stereo not drawn) [(18), 7-β-[4-(2'-methylamido-2'-carboxy)ethylimidazol-2-yl-thioacetamido]-3-[2-(2-methyl-1,3,4-thiazolyl)thiomethyl]-3-cephem-4-carboxylic acid], the “Blood Concentration of the Compound” value ([1]; 0.5 hr.) was 10.3 µg/mL, the “Blood Concentration of the Compound” value ([1]; 1 hr.) was 11.2 µg/mL and the “Blood Concentration of the Compound” value ([1]; 4 hrs.) was 4.9 µg/mL.
In the case of `CC1=C(C(=O)O)N2C(=O)[C@@H](NC(=O)[C@H](N)c3ccccc3)[C@H]2SC1` [Cephalexin, reference compound], the MIC Value [2] was over 100 µg/mL, the MIC Value [3] was 3.1 µg/mL (≈ 8.92 µM) and the MIC Value [4] was over 100 µg/mL. It also gave an MIC Value [5] of 50 µg/mL (≈ 144 µM), an MIC Value [6] of over 100 µg/mL and an MIC Value [7] of 50 µg/mL (≈ 144 µM). It also gave an MIC Value [8] of over 100 µg/mL and an MIC Value [9] of 25 µg/mL (≈ 72 µM).
For `Cn1nnnc1SCC1=C(C(=O)O)N2C(=O)[C@@H](NC(=O)CSc3nc(C[C@H](N)C(=O)O)c[nH]3)[C@H]2SC1` [Example 2, 7-β-[4-(2'-amino-2'-carboxy)ethylimidazol-2-yl-thioacetamido]-3-[(1-methyl-1H-tetrazol-5-yl)thiomethyl]-3-cephem-4-carboxylic acid], the concentration at 0.5 h [10] was 4700 ng/mL, the concentration at 1 h [10] was 2900 ng/mL and the concentration at 2 h [10] was 2000 ng/mL. For the same compound, the concentration at 4 h [10] was 1000 ng/mL.
Compound `Cc1nnc(SCC2=C(C(=O)O)N3C(=O)[C@@H](NC(=O)CSc4nc(C[C@H](N)C(=O)O)c[nH]4)[C@H]3SC2)s1` [Example 3, 7-β-[4-(2'-amino-2'-carboxy)ethylimidazol-2-yl-thioacetamido]-3-[2-(2-methyl-1,3,4-thiazolyl)thiomethyl]-3-cephem-4-carboxylic acid] has a concentration at 0.5 h [10] of 11300 ng/mL, a concentration at 1 h [10] of 12400 ng/mL and a concentration at 2 h [10] of 13700 ng/mL. The concentration at 4 h [10] was 9400 ng/mL.
For `N[C@@H](Cc1c[nH]c(SCC(=O)N[C@@H]2C(=O)N3C(C(=O)O)=C(CSc4nc[nH]n4)CS[C@H]23)n1)C(=O)O` [Example 4, 7-β-[4-(2'-amino-2'-carboxy)ethylimidazol-2-yl-thioacetamido]-3-[(1,3,4-triazole)thiomethyl]-3-cephem-4-carboxylic acid], the concentration at 0.5 h [10] was 2100 ng/mL, the concentration at 1 h [10] was 1200 ng/mL and the concentration at 2 h [10] was 400 ng/mL. It also gave a concentration at 4 h [10] of 100 ng/mL.
For `N[C@@H](Cc1c[nH]c(SCC(=O)N[C@@H]2C(=O)N3C(C(=O)O)=C(CSc4cnn[nH]4)CS[C@H]23)n1)C(=O)O` [Example 5, 7-β-[4-(2'-amino-2'-carboxy)ethylimidazol-2-yl-thioacetamido]-3-[(1,2,3-triazole)thiomethyl]-3-cephem-4-carboxylic acid], the concentration at 0.5 h [10] was 12400 ng/mL, the concentration at 1 h [10] was 13700 ng/mL and the concentration at 2 h [10] was 14300 ng/mL. The concentration at 4 h [10] was 10200 ng/mL.
`Cc1nnc(SCC2=C(C(=O)O)N3C(=O)[C@@H](NC(=O)CSc4nc(C[C@H](N)C(=O)O)c[nH]4)[C@H]3SC2)o1` [Example 6, 7-β-[4-(2'-amino-2'-carboxy)ethylimidazol-2-yl-thioacetamido]-3-[(2-methyl-1,3,4-oxadiazole)thiomethyl]-3-cephem-4-carboxylic acid] gave a concentration at 0.5 h [10] of 8000 ng/mL, a concentration at 1 h [10] of 5300 ng/mL and a concentration at 2 h [10] of 3600 ng/mL. It also gave a concentration at 4 h [10] of 1000 ng/mL.
In the case of `Cn1nncc1SCC1=C(C(=O)O)N2C(=O)[C@@H](NC(=O)CSc3nc(C[C@H](N)C(=O)O)c[nH]3)[C@H]2SC1` [Example 7, 7-β-[4-(2'-amino-2'-carboxy)ethylimidazol-2-yl-thioacetamido]-3-[(1-methyl-1H-1,2,3-triazole)thiomethyl]-3-cephem-4-carboxylic acid], the concentration at 0.5 h [10] was 4200 ng/mL, the concentration at 1 h [10] was 2100 ng/mL and the concentration at 2 h [10] was 700 ng/mL. It also gave a concentration at 4 h [10] of 400 ng/mL.
With `CC1=C(C(=O)O)N2C(=O)[C@@H](NC(=O)CSc3nc(C[C@H](N)C(=O)O)c[nH]3)[C@H]2SC1` [Example 8, 7-β-[4-(2'-amino-2'-carboxy)ethylimidazol-2-yl-thioacetamido]-3-methyl-3-cephem-4-carboxylic acid] the concentration at 0.5 h [10] was 14900 ng/mL, the concentration at 1 h [10] was 11300 ng/mL and the concentration at 2 h [10] was 7200 ng/mL. For the same compound, the concentration at 4 h [10] was 4000 ng/mL.
`COC1=C(C(=O)O)N2C(=O)[C@@H](NC(=O)CSc3nc(C[C@H](N)C(=O)O)c[nH]3)[C@H]2SC1` [Example 9, 7-β-[4-(2'-amino-2'-carboxy)ethylimidazol-2-yl-thioacetamido]-3-methoxy-3-cephem-4-carboxylic acid] gave a concentration at 0.5 h [10] of 8400 ng/mL, a concentration at 1 h [10] of 6700 ng/mL and a concentration at 2 h [10] of 3400 ng/mL. For the same compound, the concentration at 4 h [10] was 1100 ng/mL.
Work on `N[C@@H](Cc1c[nH]c(SCC(=O)N[C@@H]2C(=O)N3C(C(=O)O)=C(Cl)CS[C@H]23)n1)C(=O)O` [Example 10, 7-β-[4-(2'-amino-2'-carboxy)ethylimidazol-2-yl-thioacetamido]-3-chloro-3-cephem-4-carboxylic acid] yielded a concentration at 0.5 h [10] of 7400 ng/mL, a concentration at 1 h [10] of 5900 ng/mL and a concentration at 2 h [10] of 3000 ng/mL. For the same compound, the concentration at 4 h [10] was 1800 ng/mL.
`N[C@@H](Cc1c[nH]c(SCC(=O)N[C@@H]2C(=O)N3C(C(=O)O)=CCS[C@H]23)n1)C(=O)O` [Example 11, 7-β-[4-(2'-amino-2'-carboxy)ethylimidazol-2-yl-thioacetamido]-3-cephem-4-carboxylic acid] gave a concentration at 0.5 h [10] of 8300 ng/mL, a concentration at 1 h [10] of 7400 ng/mL and a concentration at 2 h [10] of 4200 ng/mL. It also gave a concentration at 4 h [10] of 1800 ng/mL.
With `CO[C@@]1(NC(=O)CSc2nc(C[C@H](N)C(=O)O)c[nH]2)C(=O)N2C(C(=O)O)=C(COC(C)=O)CS[C@@H]21` [Example 12, 7-β-[4-(2'-amino-2'-carboxy)ethylimidazol-2-yl-thioacetamido]-7α-methoxy-3-acetoxymethyl-3-cephem-4-carboxylic acid] the concentration at 0.5 h ([1]; 0.5 hr.) was 3900 ng/mL, the concentration at 1 h ([1]; 1 hr.) was 1700 ng/mL and the concentration at 4 h ([1]; 4 hrs.) was 400 ng/mL.
Work on `CO[C@@]1(NC(=O)CSc2nc(C[C@H](N)C(=O)O)c[nH]2)C(=O)N2C(C(=O)O)=C(CSc3nnnn3C)CS[C@@H]21` [Example 13, 7-β-[4-(2'-amino-2'-carboxy)ethylimidazol-2-yl-thioacetamido]-7α-methoxy-3-[(1-methyl-1H-tetrazol-5-yl)thiomethyl]-3-cephem-4-carboxylic acid] yielded a concentration at 0.5 h ([1]; 0.5 hr.) of 4600 ng/mL, a concentration at 1 h ([1]; 1 hr.) of 3100 ng/mL and a concentration at 4 h ([1]; 4 hrs.) of 1100 ng/mL.
`CO[C@@]1(NC(=O)CSc2nc(C[C@H](N)C(=O)OCOC(C)=O)c[nH]2)C(=O)N2C(C(=O)OCOC(C)=O)=C(CSc3nnnn3C)CS[C@@H]21` [Example 14, 7-β-[4-(2'-amino-2'-carboxy)ethylimidazol-2-yl-thioacetamido]-7α-methoxy-3-[(1-methyl-1H-tetrazol-5-yl)thiomethyl]-3-cephem-4-carboxylic acid diacetoxymethyl ester] gave a concentration at 0.5 h ([1]; 0.5 hr.) of 6800 ng/mL, a concentration at 1 h ([1]; 1 hr.) of 4100 ng/mL and a concentration at 4 h ([1]; 4 hrs.) of 2300 ng/mL.
Compound `Cn1nnnc1SCC1=C(C(=O)O)N2C(=O)[C@@H](NC(=O)CSc3nc(C[C@H](NC=O)C(=O)O)c[nH]3)[C@H]2SC1` [Example 15, 7-β-[4-(2'-formamido-2'-carboxy)ethylimidazol-2-yl-thioacetamido]-3-[(1-methyl-1H-tetrazol-5-yl)thiomethyl]-3-cephem-4-carboxylic acid] has a concentration at 0.5 h ([1]; 0.5 hr.) of 3900 ng/mL, a concentration at 1 h ([1]; 1 hr.) of 2700 ng/mL and a concentration at 4 h ([1]; 4 hrs.) of 1700 ng/mL.
In the case of `Cn1nnnc1SCC1=C(C(=O)O)N2C(=O)[C@@H](NC(=O)CSc3nc(C[C@H](N)C(=O)O)c[nH]3)[C@H]2SC1` [drawing 11], the MIC Value [2] was 25 µg/mL (≈ 45 µM), the MIC Value [3] was 1.6 µg/mL (≈ 2.88 µM) and the MIC Value [4] was 12.5 µg/mL (≈ 22.5 µM). For the same compound, the MIC Value [5] was 12.5 µg/mL (≈ 22.5 µM), the MIC Value [6] was 25 µg/mL (≈ 45 µM) and the MIC Value [7] was 12.5 µg/mL (≈ 22.5 µM). The MIC Value [8] was 25 µg/mL (≈ 45 µM) and the MIC Value [9] was 12.5 µg/mL (≈ 22.5 µM).
Compound `Cc1nnc(SCC2=C(C(=O)O)N3C(=O)[C@@H](NC(=O)CSc4nc(C[C@H](N)C(=O)O)c[nH]4)[C@H]3SC2)s1` [drawing 13] has an MIC Value [2] of 50 µg/mL (≈ 87.5 µM), an MIC Value [3] of 1.6 µg/mL (≈ 2.8 µM) and an MIC Value [4] of 50 µg/mL (≈ 87.5 µM). The MIC Value [5] was 25 µg/mL (≈ 43.7 µM), the MIC Value [6] was 50 µg/mL (≈ 87.5 µM) and the MIC Value [7] was 25 µg/mL (≈ 43.7 µM). For the same compound, the MIC Value [8] was 50 µg/mL (≈ 87.5 µM) and the MIC Value [9] was 25 µg/mL (≈ 43.7 µM).
